From patent publication US6608086B2, “Dihydropyridines and new uses thereof” (Synaptic Pharmaceutical Corporation, priority 1993, dated 2003)
Counter-ions that a name gives are not always drawn. Like-named read-outs stand apart in the source and are kept apart here.

Assays:
[1] = target: T1, α1C Human Adrenergic Receptor (Homo sapiens, UniProt P35348); experiment: Radioligand binding, [3H]prazosin, cloned human α1C adrenergic receptor; settings: for Ki: read-out: pKi alpha-1 1c (converted)
T1 construct: The entire coding region of α1C (1401 bp); expressed in transfected cells
T1 sequence (P35348 1-466): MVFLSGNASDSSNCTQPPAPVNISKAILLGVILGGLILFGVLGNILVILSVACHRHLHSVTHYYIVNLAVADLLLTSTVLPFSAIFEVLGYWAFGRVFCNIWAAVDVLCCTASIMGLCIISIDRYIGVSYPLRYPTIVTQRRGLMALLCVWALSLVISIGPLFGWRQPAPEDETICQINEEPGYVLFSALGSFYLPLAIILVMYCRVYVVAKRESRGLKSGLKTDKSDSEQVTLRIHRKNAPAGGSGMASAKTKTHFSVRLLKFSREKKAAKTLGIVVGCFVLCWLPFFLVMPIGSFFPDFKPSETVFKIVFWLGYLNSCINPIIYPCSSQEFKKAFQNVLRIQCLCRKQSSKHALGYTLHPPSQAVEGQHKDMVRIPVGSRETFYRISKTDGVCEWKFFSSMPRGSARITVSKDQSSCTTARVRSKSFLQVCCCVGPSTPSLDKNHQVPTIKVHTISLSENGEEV
Procedure, shortened: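 Read-out is filter-retained [3H]prazosin (0.5 nM) bound to membranes of LM(tk−) cells stably carrying the human α1C receptor. Incubation ran 20 min at 37° C. at pH 7.5, with 10 μM phentolamine marking nonspecific binding.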

α2B receptor = target: T2, α2B receptor (Homo sapiens, UniProt P18089); experiment: Competition binding, [3H]rauwolscine, human α2B receptor; settings: for Ki: read-out: pKi alpha-2 2b (converted)
T2 construct: host or cells: LM(tk-) cells, line L-NGC-α2B
T2 sequence (P18089 1-450): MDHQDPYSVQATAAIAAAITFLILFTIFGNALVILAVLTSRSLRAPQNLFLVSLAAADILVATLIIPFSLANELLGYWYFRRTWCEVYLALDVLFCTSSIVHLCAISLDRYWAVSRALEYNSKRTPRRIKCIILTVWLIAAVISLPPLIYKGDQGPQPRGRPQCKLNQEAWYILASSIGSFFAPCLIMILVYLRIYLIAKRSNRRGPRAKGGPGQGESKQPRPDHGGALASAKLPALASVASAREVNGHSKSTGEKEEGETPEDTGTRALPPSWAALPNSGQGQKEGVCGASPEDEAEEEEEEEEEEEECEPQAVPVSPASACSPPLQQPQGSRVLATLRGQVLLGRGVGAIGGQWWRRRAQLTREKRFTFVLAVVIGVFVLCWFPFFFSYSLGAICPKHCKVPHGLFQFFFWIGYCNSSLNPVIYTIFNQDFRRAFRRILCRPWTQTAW
Procedure, shortened: (§1)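 Lysates of LM(tk−) cells stably expressing human α2A, α2B or α2C receptors in 25 mM glycylglycine pH 7.6. Equilibrium competition against 0.5 nM [3H]rauwolscine, with 10 μM phentolamine defining nonspecific binding. Bound ligand separated by GF/B filtration.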

α2C receptor = target: T3, α2C receptor (Homo sapiens, UniProt P18825); experiment: Competition binding, [3H]rauwolscine, human α2C receptor; settings: for Ki: read-out: pKi alpha-2 2c (converted)
T3 construct: host or cells: LM(tk-) cells, line L-α2C
T3 sequence (P18825 1-462): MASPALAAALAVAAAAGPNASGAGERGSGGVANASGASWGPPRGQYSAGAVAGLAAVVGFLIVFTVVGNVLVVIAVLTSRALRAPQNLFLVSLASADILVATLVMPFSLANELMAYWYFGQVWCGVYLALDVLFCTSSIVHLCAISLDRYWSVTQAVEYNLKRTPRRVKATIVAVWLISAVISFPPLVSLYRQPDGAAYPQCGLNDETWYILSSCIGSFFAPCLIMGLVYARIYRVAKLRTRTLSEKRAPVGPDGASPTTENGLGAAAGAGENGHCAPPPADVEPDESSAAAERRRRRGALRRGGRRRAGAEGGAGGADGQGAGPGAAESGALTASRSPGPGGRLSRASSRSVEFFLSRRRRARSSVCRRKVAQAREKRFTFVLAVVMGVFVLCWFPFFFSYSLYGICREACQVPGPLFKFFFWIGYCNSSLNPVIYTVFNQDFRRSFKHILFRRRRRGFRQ
Procedure, shortened: as §1

L-type calcium channel = target: T4, L-type calcium channel (Rattus norvegicus, UniProt P22002); experiment: Competition binding of [3H]nitrendipine to membrane fragments of rat cardiac muscle
T4 construct: membrane fragments of rat cardiac muscle; from tissue; host or cells: rat cardiac muscle membranes
T4 sequence (P22002 whole entry, other chains not shown, the tested form may be a part): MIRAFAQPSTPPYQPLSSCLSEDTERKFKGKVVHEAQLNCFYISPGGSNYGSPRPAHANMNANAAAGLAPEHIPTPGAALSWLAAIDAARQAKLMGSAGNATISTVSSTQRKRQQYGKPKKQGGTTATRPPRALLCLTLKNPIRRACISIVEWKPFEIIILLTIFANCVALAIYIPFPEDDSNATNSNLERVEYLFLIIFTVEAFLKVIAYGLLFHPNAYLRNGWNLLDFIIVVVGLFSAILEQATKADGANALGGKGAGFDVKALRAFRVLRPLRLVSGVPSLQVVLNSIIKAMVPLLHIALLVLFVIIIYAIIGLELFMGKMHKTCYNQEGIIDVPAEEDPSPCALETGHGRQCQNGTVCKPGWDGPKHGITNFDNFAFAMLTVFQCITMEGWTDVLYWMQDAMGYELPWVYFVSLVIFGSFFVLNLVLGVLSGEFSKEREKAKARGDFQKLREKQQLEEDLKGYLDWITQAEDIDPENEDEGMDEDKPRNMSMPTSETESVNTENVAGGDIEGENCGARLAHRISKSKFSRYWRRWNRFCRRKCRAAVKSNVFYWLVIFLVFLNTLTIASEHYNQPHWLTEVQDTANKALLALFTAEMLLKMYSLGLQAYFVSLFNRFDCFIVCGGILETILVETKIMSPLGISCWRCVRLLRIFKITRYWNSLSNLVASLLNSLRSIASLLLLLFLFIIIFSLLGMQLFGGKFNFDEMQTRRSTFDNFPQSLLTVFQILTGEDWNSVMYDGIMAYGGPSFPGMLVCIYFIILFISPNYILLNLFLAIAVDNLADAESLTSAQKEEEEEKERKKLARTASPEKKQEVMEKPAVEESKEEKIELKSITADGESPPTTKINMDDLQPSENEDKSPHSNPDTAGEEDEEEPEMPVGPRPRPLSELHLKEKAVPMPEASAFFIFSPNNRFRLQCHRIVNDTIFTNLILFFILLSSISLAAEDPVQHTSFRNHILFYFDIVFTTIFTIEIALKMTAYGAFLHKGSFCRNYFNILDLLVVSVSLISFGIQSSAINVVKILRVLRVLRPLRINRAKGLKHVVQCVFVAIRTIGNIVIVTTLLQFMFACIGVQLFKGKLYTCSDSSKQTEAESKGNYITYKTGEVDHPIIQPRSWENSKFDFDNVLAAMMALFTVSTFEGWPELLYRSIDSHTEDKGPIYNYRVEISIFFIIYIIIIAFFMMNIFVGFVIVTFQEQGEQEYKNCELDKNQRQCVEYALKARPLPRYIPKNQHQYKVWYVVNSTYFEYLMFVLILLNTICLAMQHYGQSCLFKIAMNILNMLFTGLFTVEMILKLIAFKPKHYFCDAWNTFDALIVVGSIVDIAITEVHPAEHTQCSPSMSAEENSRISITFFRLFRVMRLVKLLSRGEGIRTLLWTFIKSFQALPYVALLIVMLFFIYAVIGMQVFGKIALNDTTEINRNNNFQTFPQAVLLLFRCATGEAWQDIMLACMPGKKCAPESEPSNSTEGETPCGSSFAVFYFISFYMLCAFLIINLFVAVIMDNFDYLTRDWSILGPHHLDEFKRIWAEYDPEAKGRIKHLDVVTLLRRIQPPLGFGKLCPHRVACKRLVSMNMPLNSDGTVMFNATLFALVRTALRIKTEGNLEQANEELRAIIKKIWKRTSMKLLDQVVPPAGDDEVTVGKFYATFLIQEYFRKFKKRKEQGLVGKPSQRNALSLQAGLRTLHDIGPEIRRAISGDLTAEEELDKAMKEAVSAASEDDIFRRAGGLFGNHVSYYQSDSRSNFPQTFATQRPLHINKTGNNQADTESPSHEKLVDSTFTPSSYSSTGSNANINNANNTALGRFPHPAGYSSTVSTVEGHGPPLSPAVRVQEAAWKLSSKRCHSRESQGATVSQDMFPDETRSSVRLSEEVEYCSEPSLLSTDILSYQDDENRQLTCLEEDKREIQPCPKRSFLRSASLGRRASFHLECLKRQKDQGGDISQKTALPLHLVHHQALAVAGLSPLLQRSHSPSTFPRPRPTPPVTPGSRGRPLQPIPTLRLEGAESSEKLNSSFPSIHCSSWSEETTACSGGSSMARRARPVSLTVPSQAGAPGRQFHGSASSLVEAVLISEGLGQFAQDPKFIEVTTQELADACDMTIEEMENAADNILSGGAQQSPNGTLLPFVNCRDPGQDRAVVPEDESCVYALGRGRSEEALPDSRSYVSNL
T4 sequence (P54290 25-944 partner limits assumed, other chains not shown): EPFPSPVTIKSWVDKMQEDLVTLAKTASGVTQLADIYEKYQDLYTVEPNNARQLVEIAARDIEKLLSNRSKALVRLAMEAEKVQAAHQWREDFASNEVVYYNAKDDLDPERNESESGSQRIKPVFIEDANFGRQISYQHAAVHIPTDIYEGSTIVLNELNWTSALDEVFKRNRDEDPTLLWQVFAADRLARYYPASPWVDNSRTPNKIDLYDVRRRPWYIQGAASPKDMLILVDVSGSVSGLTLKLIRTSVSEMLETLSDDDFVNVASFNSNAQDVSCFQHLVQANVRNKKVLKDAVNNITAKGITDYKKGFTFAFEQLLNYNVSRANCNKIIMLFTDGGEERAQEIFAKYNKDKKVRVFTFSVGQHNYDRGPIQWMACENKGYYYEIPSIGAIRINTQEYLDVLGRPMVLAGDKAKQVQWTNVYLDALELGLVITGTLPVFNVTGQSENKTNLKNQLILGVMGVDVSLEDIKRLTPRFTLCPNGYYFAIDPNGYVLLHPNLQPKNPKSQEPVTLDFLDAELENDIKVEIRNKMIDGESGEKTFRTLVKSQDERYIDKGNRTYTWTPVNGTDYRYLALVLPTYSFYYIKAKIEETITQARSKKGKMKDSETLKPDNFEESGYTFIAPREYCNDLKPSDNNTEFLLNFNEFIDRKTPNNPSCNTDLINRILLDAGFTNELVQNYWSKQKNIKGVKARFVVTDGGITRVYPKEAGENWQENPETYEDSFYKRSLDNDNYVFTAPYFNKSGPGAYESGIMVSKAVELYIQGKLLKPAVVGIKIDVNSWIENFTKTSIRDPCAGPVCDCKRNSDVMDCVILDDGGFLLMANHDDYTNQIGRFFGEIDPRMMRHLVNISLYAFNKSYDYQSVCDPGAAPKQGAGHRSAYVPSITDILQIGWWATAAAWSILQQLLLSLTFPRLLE
T4 sequence (P54290 945-1091 partner limits assumed, other chains not shown): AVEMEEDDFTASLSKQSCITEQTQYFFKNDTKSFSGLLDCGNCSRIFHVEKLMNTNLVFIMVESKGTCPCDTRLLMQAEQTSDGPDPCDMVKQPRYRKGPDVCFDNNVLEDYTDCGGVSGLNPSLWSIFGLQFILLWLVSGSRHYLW

[2] = cloned human receptor in LM(tk-) cell membranes, SEM and n in lines below
[3] = [3H]rauwolscine, LM(tk-) cell line L-NGC-α2B, SEM and n in lines below
[4] = [3H]rauwolscine, LM(tk-) cell line L-α2C, SEM and n in lines below
[5] = [3H]nitrendipine, rat cardiac muscle membranes, SEM and n in lines below, read-out: pKi Ca (converted)
[6] = [3H]nitrendipine, rat cardiac muscle membranes, SEM and n in lines below

Row | Compound | Ki [1, 2] [µM] | Ki (α2B receptor; [3]) [µM] | Ki (α2C receptor; [4]) [µM] | Ki (L-type calcium channel; [5]) [µM] | pKi alpha-1 1c [1, 2] | further results
1 | 5-Acetyl-1,4-dihydro-2,6-dimethyl-4-(4-nitrophenyl)-3-[3-(4,4-diphenylpiperidin-1-yl)propoxy]carbonylpyridine hydrochloride hemihydrate [Example 49] |  |  |  |  | 8.56 | pKi alpha-2 2b (α2B receptor): 6.42; pKi alpha-2 2c (α2C receptor): 6.86; pKi Ca (L-type calcium channel): 5.37
2 | COC(=O)C1=C(C)NC(C)=C(C(=O)NCCCN2CCC(c3ccccc3)CC2)C1c1ccc([N+](=O)[O-])cc1 (racemic) [(±)-45, (±)-1,4-Dihydro-3-methoxycarbonyl-2,6-dimethyl-4-(4-nitrophenyl)-5-{N-[3-(4-phenylpiperidin-1-yl)propyl]}carboxamidopyridine hydrochloride hemihydrate] | 0.000234 | 0.214 | 0.0813 | 7.41 |  | 
3 | CNC(=O)C1=C(C)NC(C)=C(C(=O)NCCCN2CCC(c3ccccc3)(c3ccccc3)CC2)C1c1ccc([N+](=O)[O-])cc1 (racemic) [(±)-119, 1,4-Dihydro-2,6-dimethyl-5-(N-Methyl) carboxamido-4-(4-nitrophenyl)-3-{N-[3-(4,4-diphenylpiperidin-1-yl)propyl]}carboxamidopyridine] |  |  |  |  |  | pKi alpha-1 1c ([1]; cloned human α1C receptor, LM(tk−) cell membranes): 8.5; pKi alpha-2 2b (α2B receptor): 6.04; pKi alpha-2 2c (α2C receptor): 6.49; Ki (L-type calcium channel; pKi Ca): 7.41 µM
4 | COC(=O)C1=C(C)NC(C)=C(C(=O)NCCCN2CCC(c3ccccc3)CC2)C1c1ccc([N+](=O)[O-])cc1 (single isomer, unassigned; (-)) [(−)-45, 1,4-Dihydro-3-methoxycarbonyl-2,6-dimethyl-4-(4-nitrophenyl)-5-{N-[3-(4-phenylpiperidin-1-yl)propyl]}carboxamidopyridine hydrochloride hemihydrate] | 0.000182 | 0.229 | 0.0138 | 4.37 |  | 
5 | CNC(=O)C1=C(C)NC(C)=C(C(=O)NCCCN2CCC(c3ccccc3)(c3ccccc3)CC2)C1c1ccc([N+](=O)[O-])cc1 (stereo not drawn) [Example 38, 1,4-Dihydro-2,6-dimethyl-5-(N-methyl)carboxamido-4-(4-nitrophenyl)-3-{N-[3-(4,4-diphenylpiperidin-1-yl)propyl]}carboxamidopyridine] |  |  |  |  | 8.50 | pKi alpha-2 2b (α2B receptor): 6.04; pKi alpha-2 2c (α2C receptor): 6.49; Ki (L-type calcium channel; pKi Ca): 7.08 µM
6 | CC(=O)C1=C(C)NC(C)=C(C(=O)NCCCN2CCC(c3ccccc3)(c3ccccc3)CC2)C1c1ccc([N+](=O)[O-])cc1 (stereo not drawn) [Example 47, 5-Acetyl-1,4-dihydro-2,6-dimethyl-4-(4-nitrophenyl)-3-{N-[3-(4,4-diphenylpiperidin-1-yl)propyl]}carboxamidopyridine] |  |  |  | 17.8 | 8.93 | pKi alpha-2 2b (α2B receptor; [3]): 6.36; pKi alpha-2 2c (α2C receptor; [4]): 6.43
7 | COC(=O)C1=C(C)NC(C)=C(C(=O)NCCCCN2CCC(c3ccccc3)(c3ccccc3)CC2)C1c1ccc([N+](=O)[O-])cc1.Cl.O (stereo not drawn) [Example 53, 1,4-Dihydro-3-methoxycarbonyl-2,6-dimethyl-4-(4-nitrophenyl)-5-{N-[4-(4,4-diphenylpiperidin-1-yl)butyl]}carboxamidopyridine hydrochloride hydrate] |  |  |  |  | 7.83 | pKi alpha-2 2b (α2B receptor; [3]): 6.34; pKi alpha-2 2c (α2C receptor; [4]): 6.67; pKi Ca (L-type calcium channel; [6]): 5.54
8 | CC1=C(C(N)=O)C(c2ccc([N+](=O)[O-])cc2)C(C(=O)NC2CCN(Cc3ccccc3)CC2)=C(c2ccoc2)N1.Cl.O (stereo not drawn) [Example 66] |  |  |  |  | 6.59 | pKi alpha-2 2b (α2B receptor; [3]): 5.35; pKi alpha-2 2c (α2C receptor; [4]): 6.24; pKi Ca (L-type calcium channel; [6]): 6.22

More lines, main results first:

Row | Ki [1, 2] [µM] | Ki (α2B receptor; [3]) [µM] | Ki (α2C receptor; [4]) [µM] | Ki (L-type calcium channel; [5]) [µM] | Compound | pKi alpha-1 1c [1, 2] | further results
9 | 0.00589 | 0.0224 | 0.0513 | 1000 | COC(=O)C1=C(C)NC(C)=C(C(=O)NCCCCN2CCC(c3ccccc3)CC2)C1c1ccc([N+](=O)[O-])cc1 (stereo not drawn) [Example 3, 1,4-Dihydro-3-methoxycarbonyl-2,6-dimethyl-4-(4-nitrophenyl)-5-{N-[4-(4-phenylpiperidin-1-yl)butyl]}carbozamidopyridine hydrochloride hydrate] |  | 
10 | 0.000525 | 0.813 | 0.417 | 0.479 | COC(=O)C1=C(C)NC(C)=C(C(=O)OCCCN2CCC(c3ccccc3)CC2)C1c1ccc([N+](=O)[O-])cc1 (stereo not drawn) [Example 48, 1,4-Dihydro-5-methazycarbonyl-2,6-dimethyl-4-(4-nitrophenyl)-3-[3-(4-phenylpiperidin-1-yl)propoxy]}carbonylpyridine hydrochloride hydrate] |  | 
11 | 0.0851 | 2.75 | 0.661 | 9.55 | COC(=O)C1=C(C)NC(C)=C(C(=O)OCCCN2CCCCC2)C1c1ccc([N+](=O)[O-])cc1 (stereo not drawn) [Example 50, 1,4-Dihydro-5-methoxycarbonyl-2,6-dimethyl-4-(4-nitrophenyl)-3-[3-(piperidin-1-yl)propoxy]carbonylpyridine hydrochloride etherate] |  | 
12 | 0.479 | 0.513 | 0.251 | 1000 | COC(=O)C1=C(C)NC(C)=C(C(=O)NCCCN2CCCCC2)C1c1ccc([N+](=O)[O-])cc1 (stereo not drawn) [Example 51, 1,4-Dihydro-3-methoxycarbonyl-2,6-dimethyl-4-(4-nitrophenyl)-5-{N-[3-(piperidin-1-yl)propyl]}carboxamidopyridine hydrochloride etherate] |  | 
13 | 0.603 | 1.86 | 0.158 | 1000 | COC(=O)C1=C(C)NC(C)=C(C(=O)NCCCN2CCc3cc(OC)c(OC)cc3C2)C1c1ccc([N+](=O)[O-])cc1 (stereo not drawn) [Example 57, 1,4-Dihydro-3-methoxycarbonyl-5-{N-[3-(1,2,3,4-tetrahydro-6,7-dimethoxyisoquinolin-2-yl)propyl]}carboxamido-2,6-dimethyl-4-(4-nitrophenyl)pyridine hydrochloride hydrate] |  | 
14 | 0.331 | 1.45 | 0.0501 | 166 | COc1cc2c(cc1OC)CN(CCCNC(=O)C1=C(C)NC(C)=C(C(N)=O)C1c1ccc([N+](=O)[O-])cc1)CC2 (stereo not drawn) [Example 58, 5-Carboxamido-1,4-dihydro-3-{N-[3-(1,2,3,4-tetrahydro-6,7-dimethoxyisoquinolin-2-yl)propyl]}carboxamido-2,6-dimethyl-4-(4-nitrophenyl)pyridine hydrochloride] |  | 
15 | 0.00105 | 0.0977 | 0.0832 | 3.09 | COC(=O)C1=C(C)NC(c2ccoc2)=C(C(=O)NCCCN2CCC(c3ccccc3)CC2)C1c1ccc([N+](=O)[O-])cc1 (stereo not drawn) [Example 65, 2-(Furan-3-yl)-1,4-dihydro-5-methoxycarbonyl-6-methyl-4-(4-nitrophenyl)-5-{N-[3-(4-phenylpiperidin-1-yl)propyl]}carboxamidopyridine hydrochloride hydrate] |  | 
